Drawing on ChEMBL document CHEMBL4385643, “Design of a brain-penetrant CDK4/6 inhibitor for glioblastoma” (Bioorg Med Chem Lett, 2019), this text covers inhibition for two molecules.

In assay [1] the target is Activin receptor type-1B (Homo sapiens) (UniProt P36896). Put plainly: Inhibition of recombinant human GST-tagged ACVR1B catalytic domain (150 to 505 residues) expressed in baculovirus expression system at 0.1 uM using serine/threonine-16 peptide as substrate incubated for 60 mins by Z'-LYTE assay relative to control.
Assay [2] addresses Bone morphogenetic protein receptor type-1A (Homo sapiens) (UniProt P36894). Put plainly: Inhibition of tracer 178 binding to recombinant human GST-tagged BMPR1A catalytic domain (187 to 532 amino acids) expressed insect cell expression system at 0.1 uM measured after 60 mins by Lanthascreen assay relative to control. (In TR-FRET formats the signal depends on donor and acceptor labels being close together.)

The target of assay [3] is Tyrosine-protein kinase Blk (Homo sapiens) (UniProt P51451). Put plainly: Inhibition of recombinant full length human His-tagged BLK expressed in baculovirus expression system at 0.1 uM using tyrosine-1 peptide as substrate incubated for 60 mins by Z'-LYTE assay relative to control.
The target of assay [4] is Calcium/calmodulin-dependent protein kinase kinase 1 (Homo sapiens) (UniProt Q8N5S9). Kind of assay: Inhibition of tracer 236 binding to recombinant human GST-tagged CAMKK1 expressed in Escherichia coli expression system at 0.1 uM measured after 60 mins by Lanthascreen assay relative to control.
In assay [5] the target is Cyclin-dependent kinase 13/Cyclin-K (Homo sapiens) (UniProt Q14004+O75909). Put plainly: Inhibition of tracer 236 binding to human GST/His-tagged CDK13/Cyclin K at 0.1 uM. The class given is protein-complex assay.
Sequence of Cyclin-dependent kinase 13/Cyclin-K (Homo sapiens) (O75909 whole entry, looked up): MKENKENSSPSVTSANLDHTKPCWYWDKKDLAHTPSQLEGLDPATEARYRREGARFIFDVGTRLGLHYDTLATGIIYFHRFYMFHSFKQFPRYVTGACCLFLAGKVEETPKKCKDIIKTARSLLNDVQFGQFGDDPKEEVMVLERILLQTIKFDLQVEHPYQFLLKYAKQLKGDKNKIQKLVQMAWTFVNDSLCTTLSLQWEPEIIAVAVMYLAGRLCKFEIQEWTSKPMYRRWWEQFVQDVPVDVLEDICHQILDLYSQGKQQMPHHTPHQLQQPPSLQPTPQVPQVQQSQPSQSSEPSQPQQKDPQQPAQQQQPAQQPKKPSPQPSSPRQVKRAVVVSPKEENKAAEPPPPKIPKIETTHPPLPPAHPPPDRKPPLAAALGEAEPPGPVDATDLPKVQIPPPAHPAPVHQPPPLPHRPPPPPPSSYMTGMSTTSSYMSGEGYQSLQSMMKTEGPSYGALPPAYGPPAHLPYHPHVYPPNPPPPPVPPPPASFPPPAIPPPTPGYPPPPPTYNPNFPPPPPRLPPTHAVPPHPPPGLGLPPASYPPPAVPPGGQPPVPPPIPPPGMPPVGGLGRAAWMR
Sequence of Cyclin-dependent kinase 13/Cyclin-K (Homo sapiens) (Q14004 whole entry, looked up): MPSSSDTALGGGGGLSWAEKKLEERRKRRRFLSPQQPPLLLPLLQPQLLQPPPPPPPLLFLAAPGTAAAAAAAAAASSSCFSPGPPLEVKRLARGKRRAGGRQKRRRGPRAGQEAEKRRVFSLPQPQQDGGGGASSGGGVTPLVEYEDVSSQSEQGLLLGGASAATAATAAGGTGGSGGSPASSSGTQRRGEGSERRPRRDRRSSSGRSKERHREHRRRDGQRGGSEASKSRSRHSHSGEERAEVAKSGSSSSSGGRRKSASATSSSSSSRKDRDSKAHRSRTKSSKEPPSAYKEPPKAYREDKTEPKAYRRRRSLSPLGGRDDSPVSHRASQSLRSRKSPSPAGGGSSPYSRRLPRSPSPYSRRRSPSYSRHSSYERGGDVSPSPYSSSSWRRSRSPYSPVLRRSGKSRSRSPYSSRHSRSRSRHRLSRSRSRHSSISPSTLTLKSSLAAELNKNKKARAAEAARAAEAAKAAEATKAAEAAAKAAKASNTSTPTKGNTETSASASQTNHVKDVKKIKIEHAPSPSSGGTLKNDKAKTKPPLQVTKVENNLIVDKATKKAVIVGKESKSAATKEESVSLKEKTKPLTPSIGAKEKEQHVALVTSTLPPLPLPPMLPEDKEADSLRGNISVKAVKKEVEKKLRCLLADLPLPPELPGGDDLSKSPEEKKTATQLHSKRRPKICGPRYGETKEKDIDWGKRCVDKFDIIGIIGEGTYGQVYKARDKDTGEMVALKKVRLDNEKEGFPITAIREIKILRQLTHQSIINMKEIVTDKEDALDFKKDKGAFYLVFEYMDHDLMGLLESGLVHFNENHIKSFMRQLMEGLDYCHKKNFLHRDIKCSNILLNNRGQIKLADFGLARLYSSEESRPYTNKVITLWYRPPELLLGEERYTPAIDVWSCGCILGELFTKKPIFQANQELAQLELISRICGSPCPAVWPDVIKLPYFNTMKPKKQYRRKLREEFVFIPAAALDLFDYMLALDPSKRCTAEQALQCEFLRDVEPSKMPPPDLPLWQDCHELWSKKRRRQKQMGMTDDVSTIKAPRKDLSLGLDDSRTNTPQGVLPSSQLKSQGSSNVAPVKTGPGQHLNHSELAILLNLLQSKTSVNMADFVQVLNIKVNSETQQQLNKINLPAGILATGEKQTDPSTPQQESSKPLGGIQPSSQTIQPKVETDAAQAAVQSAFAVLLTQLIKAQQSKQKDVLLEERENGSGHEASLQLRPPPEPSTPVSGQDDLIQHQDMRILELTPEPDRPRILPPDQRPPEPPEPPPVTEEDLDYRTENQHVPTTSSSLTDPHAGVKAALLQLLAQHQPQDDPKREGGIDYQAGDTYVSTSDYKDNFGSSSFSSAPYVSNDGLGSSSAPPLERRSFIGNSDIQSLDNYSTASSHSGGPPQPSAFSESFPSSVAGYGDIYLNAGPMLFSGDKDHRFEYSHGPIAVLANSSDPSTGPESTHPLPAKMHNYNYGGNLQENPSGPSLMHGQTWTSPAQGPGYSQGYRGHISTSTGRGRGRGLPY
In assay [6] the target is CDK3/Cyclin E (Homo sapiens) (UniProt P24864+Q00526). Put plainly: Inhibition of tracer 236 binding to recombinant human GST-tagged CDK3/CyclinE1 expressed by baculovirus in Sf9 insect cells expression system at 0.1 uM measured after 60 mins by Lanthascreen assay relative to control.
Assay [7] addresses Cyclin-dependent kinase 5/CDK5 activator 1 (Homo sapiens) (UniProt Q00535+Q15078). Put plainly: Inhibition of recombinant full length human GST/His-tagged CDK5/p25 expressed in baculovirus expression system at 0.1 uM using serine/threonine-12 peptide as substrate incubated for 60 mins by Z'-LYTE assay relative to control.
The target of assay [8] is CDK8/Cyclin C (Homo sapiens) (UniProt P49336+P24863). Kind of assay: Inhibition of tracer 236 binding to recombinant full length human His-tagged CDK8/cyclin C expressed in baculovirus expression system at 0.1 uM measured after 60 mins by Lanthascreen assay.
In assay [9] the target is Macrophage colony-stimulating factor 1 receptor (Homo sapiens) (UniProt P07333). Kind of assay: Inhibition of recombinant human His-tagged CSF1R catalytic domain (538 to 910 residues) expressed in Baculovirus expression system at 0.1 uM using tyrosine-1 peptide as substrate incubated for 60 mins by Z'-LYTE assay relative to control.
In assay [10] the target is Tyrosine-protein kinase CSK (Homo sapiens) (UniProt P41240). Kind of assay: Inhibition of recombinant full length human His-tagged CSK expressed in Escherichia coli expression system at 0.1 uM using tyrosine-2 peptide as substrate incubated for 60 mins by Z'-LYTE assay relative to control.
Sequence of Tyrosine-protein kinase CSK (Homo sapiens) (P41240 2-450 limits assumed): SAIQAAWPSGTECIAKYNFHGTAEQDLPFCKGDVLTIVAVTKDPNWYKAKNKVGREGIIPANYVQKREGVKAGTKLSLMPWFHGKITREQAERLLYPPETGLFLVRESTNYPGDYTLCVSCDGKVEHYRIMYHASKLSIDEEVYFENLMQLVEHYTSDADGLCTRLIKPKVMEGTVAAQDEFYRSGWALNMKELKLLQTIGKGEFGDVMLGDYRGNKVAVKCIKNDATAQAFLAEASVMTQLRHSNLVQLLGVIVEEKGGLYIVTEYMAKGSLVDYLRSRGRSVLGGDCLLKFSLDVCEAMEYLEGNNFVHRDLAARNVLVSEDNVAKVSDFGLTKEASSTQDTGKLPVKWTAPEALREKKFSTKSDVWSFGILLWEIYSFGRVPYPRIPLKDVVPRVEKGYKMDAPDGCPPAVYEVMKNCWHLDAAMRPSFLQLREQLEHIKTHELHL
The target in assay [11] is Death-associated protein kinase 1 (Homo sapiens) (UniProt P53355). Put plainly: Inhibition of recombinant human GST-tagged DAPK1 catalytic domain (1 to 363 residues) expressed in baculovirus expression system at 0.1 uM using ZIPtide peptide as substrate incubated for 60 mins by Adapta assay relative to control.
Sequence of Death-associated protein kinase 1 (Homo sapiens) (P53355 whole entry, looked up, the tested form may be a part): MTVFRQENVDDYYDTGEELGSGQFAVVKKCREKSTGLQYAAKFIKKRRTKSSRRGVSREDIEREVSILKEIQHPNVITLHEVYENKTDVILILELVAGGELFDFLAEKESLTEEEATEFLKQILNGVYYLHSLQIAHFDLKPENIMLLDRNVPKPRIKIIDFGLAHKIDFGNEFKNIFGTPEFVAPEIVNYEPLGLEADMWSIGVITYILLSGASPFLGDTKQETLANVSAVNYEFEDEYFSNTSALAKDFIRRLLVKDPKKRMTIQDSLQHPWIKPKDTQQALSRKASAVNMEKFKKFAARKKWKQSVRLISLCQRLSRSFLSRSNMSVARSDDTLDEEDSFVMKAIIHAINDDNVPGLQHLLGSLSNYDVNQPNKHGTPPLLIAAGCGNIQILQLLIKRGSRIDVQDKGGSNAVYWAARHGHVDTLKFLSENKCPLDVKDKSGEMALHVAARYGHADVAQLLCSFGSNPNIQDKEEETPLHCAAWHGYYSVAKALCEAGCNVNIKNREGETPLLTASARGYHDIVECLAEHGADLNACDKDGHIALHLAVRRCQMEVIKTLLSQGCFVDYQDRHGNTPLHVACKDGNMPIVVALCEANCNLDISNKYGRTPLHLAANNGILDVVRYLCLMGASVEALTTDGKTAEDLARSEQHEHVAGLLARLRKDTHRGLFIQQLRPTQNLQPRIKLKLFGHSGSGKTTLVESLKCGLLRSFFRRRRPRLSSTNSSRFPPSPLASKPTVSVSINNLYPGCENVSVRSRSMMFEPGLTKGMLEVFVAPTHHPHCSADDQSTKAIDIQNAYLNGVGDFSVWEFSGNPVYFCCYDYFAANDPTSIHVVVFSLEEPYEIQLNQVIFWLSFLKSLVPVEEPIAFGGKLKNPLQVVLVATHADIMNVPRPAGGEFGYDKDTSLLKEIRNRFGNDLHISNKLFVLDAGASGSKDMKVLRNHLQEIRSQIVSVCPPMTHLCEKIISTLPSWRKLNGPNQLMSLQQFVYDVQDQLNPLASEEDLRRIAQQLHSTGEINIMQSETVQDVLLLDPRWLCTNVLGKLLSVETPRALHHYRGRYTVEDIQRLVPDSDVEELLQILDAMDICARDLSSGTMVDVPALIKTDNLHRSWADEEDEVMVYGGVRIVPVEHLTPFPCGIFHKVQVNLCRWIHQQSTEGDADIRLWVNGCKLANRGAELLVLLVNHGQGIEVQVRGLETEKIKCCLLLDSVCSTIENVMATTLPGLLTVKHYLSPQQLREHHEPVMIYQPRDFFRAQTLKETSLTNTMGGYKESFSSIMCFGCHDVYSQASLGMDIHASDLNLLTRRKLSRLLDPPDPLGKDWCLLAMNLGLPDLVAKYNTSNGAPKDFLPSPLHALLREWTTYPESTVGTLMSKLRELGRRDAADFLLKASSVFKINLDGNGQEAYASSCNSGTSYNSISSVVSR
Assay [12] concerns the target Receptor tyrosine-protein kinase erbB-2 (Homo sapiens) (UniProt P04626). Put plainly: Inhibition of recombinant human His-tagged ERBB2 catalytic domain (676 to 1255 residues) expressed in baculovirus expression system at 0.1 uM using tyrosine-6 peptide as substrate incubated for 60 mins by Z'-LYTE assay relative to control.
The target in assay [13] is Vascular endothelial growth factor receptor 3 (Homo sapiens) (UniProt P35916). Put plainly: Inhibition of recombinant human GST-tagged FLT4 catalytic domain (800 to 1297 residues) expressed in baculovirus expression system at 0.1 uM using tyrosine-4 peptide as substrate incubated for 60 mins by Z'-LYTE assay relative to control.
Assay [14] has as its target MAP kinase-activated protein kinase 3 (Homo sapiens) (UniProt Q16644). Kind of assay: Inhibition of recombinant full length human His-tagged MAPKAPK3 expressed in baculovirus expression system at 0.1 uM using serine/threonine-4 peptide as substrate incubated for 60 mins by Z'-LYTE assay relative to control.
For assay [15], the target named is Serine/threonine-protein kinase MRCK alpha (Homo sapiens) (UniProt Q5VT25). Put plainly: Inhibition of recombinant human His-tagged MRCKalpha catalytic domain (1 to 473 residues) expressed in baculovirus expression system at 0.1 uM using serine/threonine-13 peptide as substrate incubated for 60 mins by Z'-LYTE assay relative to control.
The target of assay [16] is Hepatocyte growth factor receptor (Homo sapiens) (UniProt P08581). Put plainly: Inhibition of recombinant human His-tagged MET (956 to 1390 residues) expressed in baculovirus expression system at 0.1 uM using tyrosine-6 peptide as substrate incubated for 60 mins by Z'-LYTE assay relative to control.
The target in assay [17] is 3-phosphoinositide-dependent protein kinase 1 (Homo sapiens) (UniProt O15530). Put plainly: Inhibition of recombinant human His-tagged PDK1 expressed in baculovirus expression system at 0.1 uM using serine/threonine-7 peptide as substrate incubated for 60 mins by Z'-LYTE assay relative to control.
Assay [18] deals with Rho-associated protein kinase 1 (Homo sapiens) (UniProt Q13464). Put plainly: Inhibition of recombinant human GST-tagged ROCK1 catalytic domain (1 to 535 amino acids) expressed in baculovirus expression system at 0.1 uM using serine/threonine-7 peptide as substrate incubated for 60 mins by Z'-LYTE assay relative to control.
Assay [19] addresses Tyrosine-protein kinase receptor TYRO3 (Homo sapiens) (UniProt Q06418). Put plainly: Inhibition of recombinant human GST-tagged RSE catalytic domain (451 to 890 residues) expressed in baculovirus expression system at 0.1 uM using tyrosine-2 peptide as substrate incubated for 60 mins by Z'-LYTE assay relative to control.
Assay [20] addresses Testis-specific serine/threonine-protein kinase 1 (Homo sapiens) (UniProt Q9BXA7). Kind of assay: Inhibition of recombinant full length human His-tagged TSSK1 expressed in baculovirus expression system at 0.1 uM using serine/threonine-4 peptide as substrate incubated for 60 mins by Z'-LYTE assay relative to control.
The target of assay [21] is High affinity nerve growth factor receptor (Homo sapiens) (UniProt P04629). Kind of assay: Inhibition of recombinant human His-tagged TRKA catalytic domain (441 to 796 residues) expressed in baculovirus expression system at 0.1 uM using tyrosine-1 peptide as substrate incubated for 60 mins by Z'-LYTE assay relative to control.
The target in assay [22] is Wee1-like protein kinase (Homo sapiens) (UniProt P30291). Put plainly: Inhibition of tracer 178 binding to recombinant full length human GST-tagged WEE1 expressed in baculovirus expression system at 0.1 uM measured after 60 mins by Lanthascreen assay relative to control.
Assay [23] addresses Serine/threonine-protein kinase WNK2 (Homo sapiens) (UniProt Q9Y3S1). Put plainly: Inhibition of tracer 1710 binding to recombinant human His-tagged WNK2 catalytic domain (166 to 489 residues) expressed in baculovirus expression system at 0.1 uM measured after 60 mins by Lanthascreen assay relative to control.

What is called inhibition is the relative decrease from the control value, in per cent.

Sequence of Bone morphogenetic protein receptor type-1A (Homo sapiens) (P36894 whole entry, the tested form may be a part): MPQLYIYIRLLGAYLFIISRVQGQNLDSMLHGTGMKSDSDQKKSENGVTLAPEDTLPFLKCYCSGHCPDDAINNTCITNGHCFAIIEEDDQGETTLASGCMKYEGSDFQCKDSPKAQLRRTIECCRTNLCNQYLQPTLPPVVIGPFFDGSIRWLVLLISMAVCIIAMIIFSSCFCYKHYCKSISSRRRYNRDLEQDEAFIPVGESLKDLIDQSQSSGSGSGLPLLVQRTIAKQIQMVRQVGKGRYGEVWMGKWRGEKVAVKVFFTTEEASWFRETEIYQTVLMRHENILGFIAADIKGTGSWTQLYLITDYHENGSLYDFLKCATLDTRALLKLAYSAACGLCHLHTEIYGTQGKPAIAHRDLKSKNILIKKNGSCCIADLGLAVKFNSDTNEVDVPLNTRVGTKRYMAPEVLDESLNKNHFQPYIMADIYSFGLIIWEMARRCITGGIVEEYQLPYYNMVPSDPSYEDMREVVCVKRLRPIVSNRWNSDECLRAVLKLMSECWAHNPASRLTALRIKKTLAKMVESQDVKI
Sequence of Testis-specific serine/threonine-protein kinase 1 (Homo sapiens) (Q9BXA7 whole entry, the tested form may be a part): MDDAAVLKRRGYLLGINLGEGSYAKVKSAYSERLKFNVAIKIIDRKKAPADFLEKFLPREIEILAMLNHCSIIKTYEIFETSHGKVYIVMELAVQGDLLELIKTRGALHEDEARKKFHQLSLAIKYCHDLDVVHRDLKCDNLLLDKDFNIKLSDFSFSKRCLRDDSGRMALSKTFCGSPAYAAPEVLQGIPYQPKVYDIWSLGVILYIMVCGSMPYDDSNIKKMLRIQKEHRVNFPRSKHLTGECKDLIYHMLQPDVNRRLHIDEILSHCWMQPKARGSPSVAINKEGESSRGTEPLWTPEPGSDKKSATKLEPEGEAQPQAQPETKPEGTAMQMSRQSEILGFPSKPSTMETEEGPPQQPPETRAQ

In the case of `CCN1CCN(Cc2ccc(Nc3ncc(F)c(-c4cc(F)c5nc(C)n(C(C)C)c5c4)n3)nc2)CC1` [ABEMACICLIB], the inhibition in assay [1] is -2%; in assay [2], -0.3%; in [3] it was 12.5%; in assay [4] it was 12.6%; in assay [5], 38%; in assay [6], 24.5%. In addition, the inhibition in [7] was found to be 60.8%; in assay [8], 24.2%; in [9] it was 41.4%; in assay [10], 4%; in [11], 31.2%; in [12], 1.5%. In addition, the inhibition in assay [13] was 4%; in assay [14] it was 9%; in assay [15], 31.5%; in assay [16], 32.5%; in assay [17] it was 1%; in [18], 18.5%. For the same molecule, the inhibition is 17% in [19]; 21.5% in assay [20]; 31% in [21]; 5.5% in assay [22]; 2.7% in assay [23].

With `CCN1CC2(C1)CN(c1ccc(Nc3ncc(F)c(-c4cnn5c4[C@H](C)CCCC5)n3)nc1)C2`, the inhibition in assay [1] is -4%; in [2] it was 0.5%; in assay [3], 3.5%; in [4] it was 12%; in assay [5], 50%; in [6] it was 56.5%. The inhibition in assay [7] came to 72%; in [8], 75%; in assay [9], 88%; in assay [10], 3%; in assay [11], 14%; in assay [12], 0%. In addition, the inhibition in assay [13] stood at 19%; in [14], 1%; in assay [15], 1%; in assay [16], 10%; in assay [17], 8.5%; in assay [18] it was 2%. For the same molecule, the inhibition in [19] stood at 31%; in assay [20], 67.5%; in [21], 20%; in [22], 11%; in assay [23], 0.5%.
